From patent US9963456B2, “Pyrrolopyrimidine compound or salt thereof and compositions containing the pyrrolopyrimidine compound or salt thereof” (TAIHO PHARMACEUTICAL CO., LTD., priority 2014, dated 2018)

Biological target: NAE (heterodimer of APPBP1 and UBA3) (Homo sapiens (Human), UniProt Q8TBC4)
Test: Nedd8 conjugation inhibitory activity (AlphaScreen assay)
Assay type: biochemical
Conditions: purified NAE, GST-UBC12, Biotin-Nedd8, ATP

Sequence of NAE (heterodimer of APPBP1 and UBA3) (Q8TBC4 whole entry): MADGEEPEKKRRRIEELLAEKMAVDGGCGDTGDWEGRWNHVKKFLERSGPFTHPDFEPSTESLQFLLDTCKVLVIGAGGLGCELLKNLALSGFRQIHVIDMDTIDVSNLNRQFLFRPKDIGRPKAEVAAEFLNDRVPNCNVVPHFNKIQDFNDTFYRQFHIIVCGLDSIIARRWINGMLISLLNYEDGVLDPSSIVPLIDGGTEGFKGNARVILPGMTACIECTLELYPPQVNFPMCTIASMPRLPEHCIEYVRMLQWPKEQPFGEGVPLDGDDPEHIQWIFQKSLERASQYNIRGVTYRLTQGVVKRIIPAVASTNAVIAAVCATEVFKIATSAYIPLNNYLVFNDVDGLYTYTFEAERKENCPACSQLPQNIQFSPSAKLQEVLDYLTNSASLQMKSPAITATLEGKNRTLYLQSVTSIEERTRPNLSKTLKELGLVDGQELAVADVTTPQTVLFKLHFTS
Sequence of NAE (heterodimer of APPBP1 and UBA3) (Q13564 whole entry partner): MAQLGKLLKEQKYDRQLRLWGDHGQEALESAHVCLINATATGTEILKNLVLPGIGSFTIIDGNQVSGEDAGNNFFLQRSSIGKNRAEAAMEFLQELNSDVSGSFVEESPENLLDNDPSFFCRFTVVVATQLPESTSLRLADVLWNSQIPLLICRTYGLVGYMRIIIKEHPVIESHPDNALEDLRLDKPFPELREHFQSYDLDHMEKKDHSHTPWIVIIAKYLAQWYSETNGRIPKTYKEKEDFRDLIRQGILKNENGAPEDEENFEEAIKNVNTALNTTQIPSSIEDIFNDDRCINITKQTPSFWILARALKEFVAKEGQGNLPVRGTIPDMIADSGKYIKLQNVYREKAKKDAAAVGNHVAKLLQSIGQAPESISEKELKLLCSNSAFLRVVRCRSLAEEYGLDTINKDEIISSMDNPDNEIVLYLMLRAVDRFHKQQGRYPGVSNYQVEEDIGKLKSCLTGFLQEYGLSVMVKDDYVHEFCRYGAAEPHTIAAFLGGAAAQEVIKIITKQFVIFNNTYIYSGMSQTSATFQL

First: Nc1ncnc2c1c(C#Cc1ccnc3ccccc13)cn2[C@@H]1O[C@H](CNS(N)(=O)=O)[C@@H](O)[C@H]1O [Example 8, 4-[2-[4-Amino-7-[(2R,3R,4S,5R)-3,4-dihydroxy-5-[(sulfamoylamino)methyl]tetrahydrofuran-2-yl]pyrrolo[2,3-d]pyrimidin-5-yl]ethynyl]quinoline]
Second: Nc1ncnc2c1c(C#Cc1nccc3ccccc13)cn2[C@@H]1O[C@H](CNS(N)(=O)=O)[C@@H](O)[C@H]1O [Example 11, 1-[2-[4-Amino-7-[(2R,3R,4S,5R)-3,4-dihydroxy-5-[(sulfamoylamino)methyl]tetrahydrofuran-2-yl]pyrrolo[2,3-d]pyrimidin-5-yl]ethynyl]isoquinoline]
The IC50 of the first is 3.7-fold higher: 0.029 µM for the first, 0.0078 µM for the second. The second is the more potent here.

Compared with `COc1cccc(OC)c1C#Cc1cn([C@@H]2O[C@H](CNS(N)(=O)=O)[C@@H](O)[C@H]2O)c2ncnc(N)c12` [Example 16, 4-Amino-7-[(2R,3R,4S,5R)-3,4-dihydroxy-5-[(sulfamoylamino)methyl]tetrahydrofuran-2-yl]-5-[2-(2,6-dimethoxyphenyl)ethynyl]pyrrolo[2,3-d]pyrimidine], `CCOc1cccc(OC)c1C#Cc1cn([C@@H]2O[C@H](CNS(N)(=O)=O)[C@@H](O)[C@H]2O)c2ncnc(N)c12` [Example 62, 4-Amino-7-[(2R,3R,4S,5R)-3,4-dihydroxy-5-[(sulfamoylamino)methyl]tetrahydrofuran-2-yl]-5-[2-(2-ethoxy-6-methoxy-phenyl)ethynyl]pyrrolo[2,3-d]pyrimidine] is 1.7-fold higher in IC50: 0.0096 µM for the first, 0.016 µM for the second. The first is the more potent here.

Compared with `Nc1ncnc2c1c(C#Cc1cccc3cccnc13)cn2[C@@H]1O[C@H](CNS(N)(=O)=O)[C@@H](O)[C@H]1O` [Example 17, 8-[2-[4-Amino-7-[(2R,3R,4S,5R)-3,4-dihydroxy-5-[(sulfamoylamino)methyl]tetrahydrofuran-2-yl]pyrrolo[2,3-d]pyrimidin-5-yl]ethynyl]quinoline], `COc1ccc2cccnc2c1C#Cc1cn([C@@H]2O[C@H](CNS(N)(=O)=O)[C@@H](O)[C@H]2O)c2ncnc(N)c12` [Example 63, 8-[2-[4-Amino-7-[(2R,3R,4S,5R)-3,4-dihydroxy-5-[(sulfamoylamino)methyl]tetrahydrofuran-2-yl]pyrrolo[2,3-d]pyrimidin-5-yl]ethynyl]-7-methoxyquinoline] is 2-fold higher in IC50: 0.0054 µM for the first, 0.011 µM for the second. The first is the more potent here.

Going from `Nc1ncnc2c1c(C#Cc1ccccc1OC(F)F)cn2[C@@H]1O[C@H](CNS(N)(=O)=O)[C@@H](O)[C@H]1O` [Example 18, 4-Amino-5-[2-[2-(difluoromethoxy)phenyl]ethynyl]-7-[(2R,3R,4S,5R)-3,4-dihydroxy-5-[(sulfamoylamino)methyl]tetrahydrofuran-2-yl]pyrrolo[2,3-d]pyrimidine] to `N#Cc1ccccc1C#Cc1cn([C@@H]2O[C@H](CNS(N)(=O)=O)[C@@H](O)[C@H]2O)c2ncnc(N)c12` [Example 49, 4-Amino-5-[2-(2-cyanophenyl)ethynyl]-7-[(2R,3R,4S,5R)-3,4-dihydroxy-5-[(sulfamoylamino)methyl]tetrahydrofuran-2-yl]pyrrolo[2,3-d]pyrimidine], the IC50 falls from 0.027 µM to 0.018 µM (1.5-fold). The second is the more potent here.

`Nc1ncnc2c1c(C#Cc1ccc3[nH]ncc3n1)cn2[C@@H]1O[C@H](CNS(N)(=O)=O)[C@@H](O)[C@H]1O` [Example 19, 4-Amino-7-[(2R,3R,4S,5R)-3,4-dihydroxy-5-[(sulfamoylamino)methyl]tetrahydrofuran-2-yl]-5-[2-(1H-pyrazolo[4,3-b]pyridin-5-yl)ethynyl]pyrrolo[2,3-d]pyrimidine] and `Nc1ncnc2c1c(C#Cc1ccccn1)cn2[C@@H]1O[C@H](CNS(N)(=O)=O)[C@@H](O)[C@H]1O` [Example 44, 4-Amino-7-[(2R,3R,4S,5R)-3,4-dihydroxy-5-[(sulfamoylamino)methyl]tetrahydrofuran-2-yl]-5-[2-(2-pyridyl)ethynyl]pyrrolo[2,3-d]pyrimidine] are within 1.5-fold of each other in IC50: 0.028 µM for the first, 0.029 µM for the second.

Going from `Nc1ccc(C#Cc2cn([C@@H]3O[C@H](CNS(N)(=O)=O)[C@@H](O)[C@H]3O)c3ncnc(N)c23)c(F)c1` [Example 20, 4-Amino-5-[2-(4-amino-2-fluoro-phenyl)ethynyl]-7-[(2R,3R,4S,5R)-3,4-dihydroxy-5-[(sulfamoylamino)methyl]tetrahydrofuran-2-yl]pyrrolo[2,3-d]pyrimidine] to `COc1cccc(F)c1C#Cc1cn([C@@H]2O[C@H](CNS(N)(=O)=O)[C@@H](O)[C@H]2O)c2ncnc(N)c12` [Example 51, 4-Amino-7-[(2R,3R,4S,5R)-3,4-dihydroxy-5-[(sulfamoylamino)methyl]tetrahydrofuran-2-yl]-5-[2-(2-fluoro-6-methoxy-phenyl)ethynyl]pyrrolo[2,3-d]pyrimidine], the IC50 falls from 0.0091 µM to 0.0035 µM (2.6-fold). The second is the more potent here.

First: Nc1ncnc2c1c(C#CC1CCc3ccccc31)cn2[C@@H]1O[C@H](CNS(N)(=O)=O)[C@@H](O)[C@H]1O (stereo partly drawn) [Example 21, 4-Amino-7-[(2R,3R,4S,5R)-3,4-dihydroxy-5-[(sulfamoylamino)methyl]tetrahydrofuran-2-yl]-5-(2-indan-1-ylethynyl)pyrrolo[2,3-d]pyrimidine]
Second: CSc1cccc(F)c1C#Cc1cn([C@@H]2O[C@H](CNS(N)(=O)=O)[C@@H](O)[C@H]2O)c2ncnc(N)c12 [Example 59, 4-Amino-7-[(2R,3R,4S,5R)-3,4-dihydroxy-5-[(sulfamoylamino)methyl]tetrahydrofuran-2-yl]-5-[2-(2-fluoro-6-methylsulfanyl-phenyl)ethynyl]pyrrolo[2,3-d]pyrimidine]
The IC50 of the first is 1.8-fold higher: 0.015 µM for the first, 0.0085 µM for the second. The second is the more potent here.

Going from `CCNc1cc(F)c(C#Cc2cn([C@@H]3O[C@H](CNS(N)(=O)=O)[C@@H](O)[C@H]3O)c3ncnc(N)c23)c(F)c1` [Example 26, 4-Amino-7-[(2R,3R,4S,5R)-3,4-dihydroxy-5-[(sulfamoylamino)methyl]tetrahydrofuran-2-yl]-5-[2-[4-(ethylamino)-2,6-difluoro-phenyl]ethynyl]pyrrolo[2,3-d]pyrimidine] to `Nc1ncnc2c1c(C#Cc1c(F)cc(O)cc1F)cn2[C@@H]1O[C@H](CNS(N)(=O)=O)[C@@H](O)[C@H]1O` [Example 54, 4-Amino-5-[2-(2,6-difluoro-4-hydroxy-phenyl)ethynyl]-7-[(2R,3R,4S,5R)-3,4-dihydroxy-5-[(sulfamoylamino)methyl]tetrahydrofuran-2-yl]pyrrolo[2,3-d]pyrimidine], the IC50 falls from 0.012 µM to 0.0045 µM (2.7-fold). The second is the more potent here.

First: Nc1ncnc2c1c(C#Cc1c(F)cc(N3CC[C@@H](O)C3)cc1F)cn2[C@@H]1O[C@H](CNS(N)(=O)=O)[C@@H](O)[C@H]1O [Example 30, 4-Amino-5-[2-[2,6-difluoro-4-[(3R)-3-hydroxypyrrolidin-1-yl]phenyl]ethynyl]-7-[(2R,3R,4S,5R)-3,4-dihydroxy-5-[(sulfamoylamino)methyl]tetrahydrofuran-2-yl]pyrrolo[2,3-d]pyrimidine]
Second: Nc1ncnc2c1c(C#Cc1c(F)cc(N3CCCC(O)C3)cc1F)cn2[C@@H]1O[C@H](CNS(N)(=O)=O)[C@@H](O)[C@H]1O (stereo partly drawn) [Example 38, 4-Amino-5-[2-[2,6-difluoro-4-(3-hydroxy-1-piperidyl)phenyl]ethynyl]-7-[(2R,3R,4S,5R)-3,4-dihydroxy-5-[(sulfamoylamino)methyl]tetrahydrofuran-2-yl]pyrrolo[2,3-d]pyrimidine]
The IC50 of the first is 7.7-fold higher: 0.027 µM for the first, 0.0035 µM for the second. The second is the more potent here.

Going from `CCOc1cc(N2CCOCC2)cc(F)c1C#Cc1cn([C@@H]2O[C@H](CNS(N)(=O)=O)[C@@H](O)[C@H]2O)c2ncnc(N)c12` [Example 34, 4-[4-[2-[4-Amino-7-[(2R,3R,4S,5R)-3,4-dihydroxy-5-[(sulfamoylamino)methyl]tetrahydrofuran-2-yl]pyrrolo[2,3-d]pyrimidin-5-yl]ethynyl]-3-ethoxy-5-fluoro-phenyl]morpholine] to `CCOc1cc(F)cc(F)c1C#Cc1cn([C@@H]2O[C@H](CNS(N)(=O)=O)[C@@H](O)[C@H]2O)c2ncnc(N)c12` [Example 35, 4-Amino-7-[(2R,3R,4S,5R)-3,4-dihydroxy-5-[(sulfamoylamino)methyl]tetrahydrofuran-2-yl]-5-[2-(2-ethoxy-4,6-difluoro-phenyl)ethynyl]pyrrolo[2,3-d]pyrimidine], the IC50 falls from 0.024 µM to 0.0041 µM (5.9-fold). The second is the more potent here.

Going from `Nc1ncnc2c1c(C#Cc1c(F)cc(N3CCSCC3)cc1F)cn2[C@@H]1O[C@H](CNS(N)(=O)=O)[C@@H](O)[C@H]1O` [Example 37, 4-[4-[2-[4-Amino-7-[(2R,3R,4S,5R)-3,4-dihydroxy-5-[(sulfamoylamino)methyl]tetrahydrofuran-2-yl]pyrrolo[2,3-d]pyrimidin-5-yl]ethynyl]-3,5-difluoro-phenyl]thiomorpholine] to `Nc1ncnc2c1c(C#Cc1c(F)cc(N3CCC(=O)CC3)cc1F)cn2[C@@H]1O[C@H](CNS(N)(=O)=O)[C@@H](O)[C@H]1O` [Example 42, 4-Amino-5-[2-[2,6-difluoro-4-(4-oxo-1-piperidyl)phenyl]ethynyl]-7-[(2R,3R,4S,5R)-3,4-dihydroxy-5-[(sulfamoylamino)methyl]tetrahydrofuran-2-yl]pyrrolo[2,3-d]pyrimidine], the IC50 falls from 0.011 µM to 0.0043 µM (2.6-fold).

`CC(C)Oc1cccc(F)c1C#Cc1cn([C@@H]2O[C@H](CNS(N)(=O)=O)[C@@H](O)[C@H]2O)c2ncnc(N)c12` [Example 56, 4-Amino-7-[(2R,3R,4S,5R)-3,4-dihydroxy-5-[(sulfamoylamino)methyl]tetrahydrofuran-2-yl]-5-[2-(2-fluoro-6-isopropoxy-phenyl)ethynyl]pyrrolo[2,3-d]pyrimidine] and `Nc1ncnc2c1c(C#Cc1c(F)cccc1OCC(F)(F)F)cn2[C@@H]1O[C@H](CNS(N)(=O)=O)[C@@H](O)[C@H]1O` [Example 61, 4-Amino-7-[(2R,3R,4S,5R)-3,4-dihydroxy-5-[(sulfamoylamino)methyl]tetrahydrofuran-2-yl]-5-[2-[2-fluoro-6-(2,2,2-trifluoroethoxy)phenyl]ethynyl]pyrrolo[2,3-d]pyrimidine] are within 1.5-fold of each other in IC50: 0.0053 µM for the first, 0.0038 µM for the second.

Compound `N#Cc1cc(F)c(C#Cc2cn([C@@H]3O[C@H](CNS(N)(=O)=O)[C@@H](O)[C@H]3O)c3ncnc(N)c23)c(F)c1` [Example 57, 4-Amino-5-[2-(4-cyano-2,6-difluoro-phenyl)ethynyl]-7-[(2R,3R,4S,5R)-3,4-dihydroxy-5-[(sulfamoylamino)methyl]tetrahydrofuran-2-yl]pyrrolo[2,3-d]pyrimidine] has an IC50 of 0.0058 µM.
